Data from PMC8880361, “Design, Molecular Docking, Synthesis, Anticancer and Anti-Hyperglycemic Assessments of Thiazolidine-2,4-diones Bearing Sulfonylthiourea Moieties as Potent VEGFR-2 Inhibitors and PPARγ Agonists” (Pharmaceuticals, 2022).

Tests used:
HepG2 = test: In vitro cytotoxicity, MTT colorimetric assay; assay type: cell-based, human; conditions: for IC50: Homo sapiens, HepG2, MTT, mean ± S.D. of triplet separate experiments; for fold more toxic against HepG2 than normal VERO cells: ratio VERO vs HepG2
HCT116 = test: In vitro cytotoxicity, MTT colorimetric assay; assay type: cell-based, human; conditions: for IC50: Homo sapiens, HCT-116, MTT, mean ± S.D. of triplet separate experiments; for fold more toxic in HCT-116 than in normal VERO cells: ratio VERO vs HCT-116
MCF-7 = test: In vitro cytotoxicity, MTT colorimetric assay; assay type: cell-based, human; conditions: for IC50: Homo sapiens, MCF7, MTT, mean ± S.D. of triplet separate experiments; for fold higher toxicity in MCF-7 than in normal VERO cells: ratio VERO vs MCF-7
VERO normal cell lines = test: Cytotoxicity against normal cells; assay type: cell-based; conditions: Chlorocebus sabaeus, mean ± S.D. of triplet separate experiments
Description: The cytotoxic effects of the prepared derivatives against the malignant cell lines ranged from 5.77 to 17.65 μM. Derivatives 6a–c and 7a–c were, respectively, 3.41-, 3.83-, 6.93-, 4.99-, 5.45- and 7.74-fold times more toxic against HepG2 than normal VERO cells. Similarly, derivatives 6a-c and 7a-c were, respectively, 2.74-, 2.97-, 6.04-, 3.58-, 3.90- and 11.83-fold more toxic in HCT-116 than in normal VERO cells.

VEGFR-2 = VEGFR-2 (Homo sapiens, UniProt P35968); test: In vitro VEGFR-2 kinase assay (anti-phosphotyrosine antibody, Alpha Screen system); assay type: biochemical; conditions: mean ± S.D. of triplet separate experiments
Sequence of VEGFR-2 (P35968 20-1356): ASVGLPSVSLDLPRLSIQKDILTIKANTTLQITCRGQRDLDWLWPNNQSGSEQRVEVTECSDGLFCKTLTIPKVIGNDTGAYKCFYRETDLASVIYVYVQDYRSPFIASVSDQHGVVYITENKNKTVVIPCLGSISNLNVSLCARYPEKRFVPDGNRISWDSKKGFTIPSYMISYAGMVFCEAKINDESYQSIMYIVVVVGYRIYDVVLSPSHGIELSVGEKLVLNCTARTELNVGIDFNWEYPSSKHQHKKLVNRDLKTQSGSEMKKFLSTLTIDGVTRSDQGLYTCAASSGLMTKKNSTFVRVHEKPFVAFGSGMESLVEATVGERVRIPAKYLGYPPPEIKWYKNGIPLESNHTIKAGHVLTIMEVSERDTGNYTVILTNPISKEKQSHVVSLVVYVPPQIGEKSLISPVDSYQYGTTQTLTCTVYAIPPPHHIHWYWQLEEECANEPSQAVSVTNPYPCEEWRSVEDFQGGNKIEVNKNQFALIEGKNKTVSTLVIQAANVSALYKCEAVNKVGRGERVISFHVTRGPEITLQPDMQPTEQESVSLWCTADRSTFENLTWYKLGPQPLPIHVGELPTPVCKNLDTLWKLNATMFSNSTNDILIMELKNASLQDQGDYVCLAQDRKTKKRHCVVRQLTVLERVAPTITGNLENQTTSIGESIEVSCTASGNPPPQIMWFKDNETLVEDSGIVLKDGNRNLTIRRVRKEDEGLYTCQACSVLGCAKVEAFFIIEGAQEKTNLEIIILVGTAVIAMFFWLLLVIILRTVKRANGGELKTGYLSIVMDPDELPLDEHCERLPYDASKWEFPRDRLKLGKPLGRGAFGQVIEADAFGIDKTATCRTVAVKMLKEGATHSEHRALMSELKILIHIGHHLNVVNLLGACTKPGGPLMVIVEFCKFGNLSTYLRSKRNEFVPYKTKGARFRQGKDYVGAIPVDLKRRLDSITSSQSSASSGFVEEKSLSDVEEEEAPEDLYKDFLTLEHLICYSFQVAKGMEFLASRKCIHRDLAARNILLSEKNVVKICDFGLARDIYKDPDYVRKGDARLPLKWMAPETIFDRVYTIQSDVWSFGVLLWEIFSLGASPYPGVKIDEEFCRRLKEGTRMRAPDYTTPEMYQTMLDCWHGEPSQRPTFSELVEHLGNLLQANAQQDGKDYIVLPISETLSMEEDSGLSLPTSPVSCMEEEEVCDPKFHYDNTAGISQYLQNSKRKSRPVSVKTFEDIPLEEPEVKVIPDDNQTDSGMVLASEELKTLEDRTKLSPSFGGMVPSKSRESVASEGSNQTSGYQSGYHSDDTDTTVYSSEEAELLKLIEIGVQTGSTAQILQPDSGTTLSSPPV

PPARγ = target: T1, PPARγ (Homo sapiens, UniProt P37231); test: In vitro PPARγ ligand binding assay (Fluorescence Polarization); conditions: concentration required to displace 50% of the titrated ligand; n = 3; read-out: IC50 PPARγ Binding Affinity
T1 sequence (P37231 1-505): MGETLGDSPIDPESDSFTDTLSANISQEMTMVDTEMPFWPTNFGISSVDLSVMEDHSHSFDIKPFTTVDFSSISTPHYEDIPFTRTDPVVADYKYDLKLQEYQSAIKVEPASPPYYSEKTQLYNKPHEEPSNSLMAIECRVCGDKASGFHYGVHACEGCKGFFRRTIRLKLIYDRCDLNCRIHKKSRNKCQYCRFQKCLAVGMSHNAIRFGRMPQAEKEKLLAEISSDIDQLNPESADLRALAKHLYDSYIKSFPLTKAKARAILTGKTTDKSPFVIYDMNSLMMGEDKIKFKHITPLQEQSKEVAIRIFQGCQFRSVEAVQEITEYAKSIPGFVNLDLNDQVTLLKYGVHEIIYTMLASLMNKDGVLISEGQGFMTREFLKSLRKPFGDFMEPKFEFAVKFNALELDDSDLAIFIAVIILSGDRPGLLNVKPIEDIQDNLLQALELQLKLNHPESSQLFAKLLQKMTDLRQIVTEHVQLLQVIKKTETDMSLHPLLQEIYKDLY

[1] = tested on: isolated pancreatic islets of rats; test: In vitro insulin secretion assay (sandwich enzyme immunoassay); assay type: cell-based; conditions: Pancreatic islet; isolated rat pancreatic islets; concentration for 50% of the maximum action; n = 3; read-out: EC50 Insulin Secreting Activity
Description: Compounds 5a–c, 6a–c and 7a–c were also assessed to establish their insulin-secretion activities in vitro against isolated pancreatic islets of rats through the quantitative sandwich technique of enzyme immunoassay. Glimiperide was applied as the standard. The findings are described as the EC50 values (Table 4).

| IC50 (VEGFR-2) | IC50 (PPARγ) | EC50 [1] | melting point | Structure (SMILES) | IC50 (HepG2) | fold more toxic against HepG2 than normal VERO cells (HepG2) | IC50 (HCT116) | fold more toxic in HCT-116 than in normal VERO cells (HCT116) | IC50 (MCF-7) | fold higher toxicity in MCF-7 than in normal VERO cells (MCF-7) | IC50 (VERO normal cell lines) |
| --- | --- | --- | --- | --- | --- | --- | --- | --- | --- | --- | --- |
| 0.17 ± 0.02 µM | 0.323 µM | 0.87 µM | 282 to 284 °C | CCNC(=S)NS(=O)(=O)c1ccc(NC(=O)CN2C(=O)SC(=Cc3ccccc3)C2=O)cc1 [Compound 6a, 2-(5-Benzylidene-2,4-dioxothiazolidin-3-yl)-N-(4-(N-(ethylcarbamothioyl)sulfamoyl)phenyl)acetamide] | 14.2 ± 2.3 µM | 3.41 fold | 17.7 ± 2.3 µM | 2.74 fold | 16.5 ± 2.3 µM | 2.93 fold | 48.31 ± 0.22 µM |
| 0.44 ± 0.05 µM | 0.36 µM | 1 µM | 267 to 269 °C | O=C(CN1C(=O)CSC1=O)Nc1ccc(S(=O)(=O)NC(=S)NC2CCCCC2)cc1 [Compound 5c, N-(4-(N-(Cyclohexylcarbamothioyl)sulfamoyl)phenyl)-2-(2,4-dioxothiazolidin-3-yl)acetamide] | 20.8 ± 2.6 µM | – | 23.6 ± 2.6 µM | – | 24.6 ± 2.6 µM | – | – |
| 0.14 ± 0.02 µM | 0.32 µM | 0.81 µM | 285 to 287 °C | CCNC(=S)NS(=O)(=O)c1ccc(NC(=O)CN2C(=O)SC(=Cc3ccc(C)cc3)C2=O)cc1 [Compound 7a, N-(4-(N-(Ethylcarbamothioyl)sulfamoyl)phenyl)-2-(5-(4-methylbenzylidene)-2,4-dioxothiazolidin-3-yl)acetamide] | 12.1 ± 1.5 µM | 4.99 fold | 16.8 ± 1.5 µM | 3.58 fold | 16.7 ± 1.5 µM | 3.61 fold | 60.12 ± 0.18 µM |
| 0.44 ± 0.05 µM | 0.377 µM | 1.13 µM | 262 to 264 °C | O=C(CN1C(=O)CSC1=O)Nc1ccc(S(=O)(=O)NC(=S)Nc2ccccc2)cc1 [Compound 5b, 2-(2,4-Dioxothiazolidin-3-yl)-N-(4-(N-(phenylcarbamothioyl)sulfamoyl)phenyl)acetamide] | 22 ± 2 µM | – | 25.7 ± 2 µM | – | 23.2 ± 2 µM | – | – |
| – | – | 0.73 µM | – | CCC1=C(C)CN(C(=O)NCCc2ccc(S(=O)(=O)NC(=O)N[C@H]3CC[C@H](C)CC3)cc2)C1=O [Glimiperide, reference compound] | – | – | – | – | – | – | – |
| 0.15 ± 0.02 µM | 0.308 µM | 0.78 µM | 286 to 288 °C | O=C(CN1C(=O)SC(=Cc2ccccc2)C1=O)Nc1ccc(S(=O)(=O)NC(=S)Nc2ccccc2)cc1 [Compound 6b, 2-(5-Benzylidene-2,4-dioxothiazolidin-3-yl)-N-(4-(N-(phenylcarbamothioyl)sulfamoyl)phenyl)-acetamide] | 10.7 ± 1.6 µM | 3.83 fold | 13.8 ± 1.2 µM | 2.97 fold | 13 ± 1.2 µM | 3.16 fold | 40.88 ± 0.22 µM |
| 0.93 ± 0.06 µM | – | – | – | NS(=O)(=O)c1ccc(NC(=O)CN2C(=O)CSC2=O)cc1 [Compound 3, 2-(2,4-Dioxothiazolidin-3-yl)-N-(4-Sulfamoylphenyl)-Acetamide] | 58.6 ± 5.1 µM | – | 61.5 ± 5.1 µM | – | 60.2 ± 5.1 µM | – | – |
| 0.46 ± 0.05 µM | 0.393 µM | 1.2 µM | – | CCNC(=S)NS(=O)(=O)c1ccc(NC(=O)CN2C(=O)CSC2=O)cc1 [Compound 5a, 2-(2,4-Dioxothiazolidin-3-yl)-N-(4-(N-(ethylcarbamothioyl)sulfamoyl)phenyl)acetamide] | 24.5 ± 2.2 µM | – | 40.1 ± 2.2 µM | – | 28.8 ± 2.2 µM | – | – |

More lines, now with the values behind:

| Structure (SMILES) | IC50 (VEGFR-2) | IC50 (PPARγ) | EC50 [1] | melting point | IC50 (HepG2) | fold more toxic against HepG2 than normal VERO cells (HepG2) | IC50 (HCT116) | fold more toxic in HCT-116 than in normal VERO cells (HCT116) | IC50 (MCF-7) | fold higher toxicity in MCF-7 than in normal VERO cells (MCF-7) | IC50 (VERO normal cell lines) |
| --- | --- | --- | --- | --- | --- | --- | --- | --- | --- | --- | --- |
| Cc1ccc(C=C2SC(=O)N(CC(=O)Nc3ccc(S(=O)(=O)NC(=S)Nc4ccccc4)cc3)C2=O)cc1 [Compound 7b, 2-(5-(4-Methylbenzylidene)-2,4-dioxothiazolidin-3-yl)-N-(4-(N-(phenylcarbamothioyl)sulfamoyl)-phenyl)acetamide] | 0.11 ± 0.02 µM | 0.305 µM | 0.75 µM | – | 9.65 ± 1.7 µM | 5.45 fold | 13.5 ± 1.6 µM | 3.90 fold | 12.9 ± 1.7 µM | 4.08 fold | 52.61 ± 0.22 µM |
| Cc1ccc(C=C2SC(=O)N(CC(=O)Nc3ccc(S(N)(=O)=O)cc3)C2=O)cc1 [Compound 4b, 2-(5-(4-Methylbenzylidene)-2,4-dioxothiazolidin-3-yl)-N-(4-sulfamoylphenyl)acetamide] | 0.89 ± 0.06 µM | – | – | 240 to 242 °C | 48.6 ± 5.1 µM | – | 57.9 ± 5.1 µM | – | 62.4 ± 5.1 µM | – | – |
| NS(=O)(=O)c1ccc(NC(=O)CN2C(=O)SC(=Cc3ccccc3)C2=O)cc1 [Compound 4a, 2-(5-Benzylidene-2,4-dioxothiazolidin-3-yl)-N-(4-sulfamoylphenyl)acetamide] | 0.92 ± 0.06 µM | – | – | 226 to 228 °C | 52.9 ± 5.1 µM | – | 55.1 ± 5.1 µM | – | 55 ± 5.1 µM | – | – |
| COc1cccc2c1C(=O)c1c(O)c3c(c(O)c1C2=O)C[C@@](O)(C(=O)CO)C[C@@H]3O[C@H]1C[C@H](N)[C@H](O)[C@H](C)O1 [Doxorubicin, reference compound] | – | – | – | – | 7.94 ± 0.6 µM | – | – | – | 6.75 ± 0.4 µM | – | – |
| O=C(CN1C(=O)SC(=Cc2ccccc2)C1=O)Nc1ccc(S(=O)(=O)NC(=S)NC2CCCCC2)cc1 [Compound 6c, 2-(5-Benzylidene-2,4-dioxothiazolidin-3-yl)-N-(4-(N-(cyclohexylcarbamothioyl)sulfamoyl)phenyl)-acetamide] | 0.08 ± 0.02 µM | 0.3 µM | 0.7 µM | – | 8.99 ± 1.2 µM | 6.93 fold | 7.11 ± 1.7 µM | 6.04 fold | 8.15 ± 1.6 µM | – | 49.26 ± 0.22 µM |
| Cc1ccc(C=C2SC(=O)N(CC(=O)Nc3ccc(S(=O)(=O)NC(=S)NC4CCCCC4)cc3)C2=O)cc1 [Compound 7c, N-(4-(N-(Cyclohexylcarbamothioyl)sulfamoyl)phenyl)-2-(5-(4-methylbenzylidene)-2,4-dioxothiazolidin-3-yl)acetamide] | 0.08 ± 0.02 µM | 0.296 µM | 0.7 µM | – | 8.82 ± 1.9 µM | 7.74 fold | 5.77 ± 1.9 µM | 11.83 fold | 7.78 ± 1.9 µM | 8.77 fold | 68.25 ± 0.21 µM |
